Active and inactive are the calls of the source. The calls are words filed in the database; no cut-off is given here.
Legend:
Histone deacetylase 1 = Histone deacetylase 1 (Homo sapiens, UniProt Q13547); test: Inhibition of human recombinant HDAC1 using fluorogenic substrate measured after 30 mins
[1] = target: T1, Protein deacetylase HDAC6 (Homo sapiens, UniProt Q9UBN7); test: Inhibition of human recombinant HDAC6 using fluorogenic substrate measured after 30 mins
T1 sequence (Q9UBN7 whole entry): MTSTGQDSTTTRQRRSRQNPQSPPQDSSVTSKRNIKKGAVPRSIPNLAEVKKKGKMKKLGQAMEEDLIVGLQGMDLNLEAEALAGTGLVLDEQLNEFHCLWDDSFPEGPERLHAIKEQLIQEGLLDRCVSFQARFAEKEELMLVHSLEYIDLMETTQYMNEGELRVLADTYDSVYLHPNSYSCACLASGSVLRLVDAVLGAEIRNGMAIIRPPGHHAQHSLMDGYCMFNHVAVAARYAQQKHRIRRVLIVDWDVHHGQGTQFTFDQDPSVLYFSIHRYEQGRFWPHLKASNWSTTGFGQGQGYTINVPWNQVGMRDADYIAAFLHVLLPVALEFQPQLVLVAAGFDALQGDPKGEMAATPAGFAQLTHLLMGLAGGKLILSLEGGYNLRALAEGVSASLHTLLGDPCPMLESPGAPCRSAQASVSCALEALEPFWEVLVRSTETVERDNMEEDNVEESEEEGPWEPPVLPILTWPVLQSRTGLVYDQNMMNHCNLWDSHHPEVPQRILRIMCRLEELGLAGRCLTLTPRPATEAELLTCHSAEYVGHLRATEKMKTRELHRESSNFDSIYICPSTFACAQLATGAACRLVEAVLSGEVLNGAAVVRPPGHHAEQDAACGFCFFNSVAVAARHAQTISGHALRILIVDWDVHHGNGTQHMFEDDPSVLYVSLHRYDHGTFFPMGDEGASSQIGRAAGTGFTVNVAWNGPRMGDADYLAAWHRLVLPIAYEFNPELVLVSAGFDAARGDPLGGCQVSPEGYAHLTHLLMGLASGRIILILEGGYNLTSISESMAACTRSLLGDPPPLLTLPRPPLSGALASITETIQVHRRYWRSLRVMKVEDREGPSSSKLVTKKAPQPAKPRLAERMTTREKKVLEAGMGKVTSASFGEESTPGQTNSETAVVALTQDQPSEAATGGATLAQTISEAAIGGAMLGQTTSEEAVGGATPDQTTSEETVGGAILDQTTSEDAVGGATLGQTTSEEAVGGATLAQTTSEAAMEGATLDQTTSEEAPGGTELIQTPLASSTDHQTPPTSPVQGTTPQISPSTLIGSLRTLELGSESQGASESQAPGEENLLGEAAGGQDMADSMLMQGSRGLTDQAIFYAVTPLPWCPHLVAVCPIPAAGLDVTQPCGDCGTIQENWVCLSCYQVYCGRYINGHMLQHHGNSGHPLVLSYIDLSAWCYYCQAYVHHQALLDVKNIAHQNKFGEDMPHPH

[2] = Cytotoxicity against human SH-SY5Y cells assessed as cell viability measured after 36 hrs by CCK8 assay
Histone deacetylase 4 = Histone deacetylase 4 (Homo sapiens, UniProt P56524); test: Inhibition of human recombinant HDAC4 using fluorogenic substrate measured after 30 mins
[3] = target: T2, Protein deacetylase HDAC6 (Homo sapiens) (UniProt Q9UBN7); test: Inhibition of HDAC6 in human SH-SY5Y cells assessed as acetylated histone H3 level at 0.3 to 3 uM measured after 24 hrs by immunoblotting analysis; assay type: cell-based; conditions: dose 0.3-3 µM
T2 sequence (whole entry): T1 sequence (Q9UBN7 whole entry)

Histone deacetylase 11 = target: T3, Histone deacetylase 11 (Homo sapiens, UniProt Q96DB2); test: Inhibition of human recombinant HDAC11 using fluorogenic substrate measured after 30 mins
T3 sequence (Q96DB2 whole entry): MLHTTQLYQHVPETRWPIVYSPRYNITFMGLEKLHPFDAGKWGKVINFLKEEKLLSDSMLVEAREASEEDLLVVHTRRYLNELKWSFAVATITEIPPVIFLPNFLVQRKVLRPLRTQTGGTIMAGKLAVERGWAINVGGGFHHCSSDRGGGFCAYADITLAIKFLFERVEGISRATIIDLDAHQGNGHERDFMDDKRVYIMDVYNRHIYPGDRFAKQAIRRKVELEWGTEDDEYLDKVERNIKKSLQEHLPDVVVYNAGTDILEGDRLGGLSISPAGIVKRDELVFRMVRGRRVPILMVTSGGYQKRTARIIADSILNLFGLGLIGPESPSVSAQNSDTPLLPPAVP

[4] = target: T2, Protein deacetylase HDAC6 (Homo sapiens); test: Inhibition of HDAC6 in human HeLa cells assessed as acetylated histone H3 level at 0.3 to 3 uM measured after 24 hrs by immunoblotting analysis; assay type: cell-based; conditions: dose 0.3-3 µM
Histone deacetylase 8 = target: T4, Histone deacetylase 8 (Homo sapiens, UniProt Q9BY41); test: Inhibition of human recombinant HDAC8 using fluorogenic substrate measured after 30 mins
T4 sequence (Q9BY41 whole entry): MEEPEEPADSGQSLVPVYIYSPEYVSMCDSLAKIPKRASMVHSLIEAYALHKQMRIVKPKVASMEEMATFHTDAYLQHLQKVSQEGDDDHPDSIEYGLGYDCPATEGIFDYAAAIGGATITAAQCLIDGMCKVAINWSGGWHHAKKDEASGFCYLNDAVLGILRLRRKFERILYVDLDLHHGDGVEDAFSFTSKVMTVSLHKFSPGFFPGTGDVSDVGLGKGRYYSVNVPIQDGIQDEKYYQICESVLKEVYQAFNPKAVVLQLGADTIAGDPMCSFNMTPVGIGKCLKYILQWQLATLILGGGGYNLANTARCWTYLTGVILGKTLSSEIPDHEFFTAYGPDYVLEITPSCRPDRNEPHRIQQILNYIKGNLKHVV

Histone deacetylase 2 = Histone deacetylase 2 (Homo sapiens, UniProt Q92769); test: Inhibition of human recombinant HDAC2 using fluorogenic substrate measured after 30 mins
Chain of Histone deacetylase 2 (Q92769 whole entry): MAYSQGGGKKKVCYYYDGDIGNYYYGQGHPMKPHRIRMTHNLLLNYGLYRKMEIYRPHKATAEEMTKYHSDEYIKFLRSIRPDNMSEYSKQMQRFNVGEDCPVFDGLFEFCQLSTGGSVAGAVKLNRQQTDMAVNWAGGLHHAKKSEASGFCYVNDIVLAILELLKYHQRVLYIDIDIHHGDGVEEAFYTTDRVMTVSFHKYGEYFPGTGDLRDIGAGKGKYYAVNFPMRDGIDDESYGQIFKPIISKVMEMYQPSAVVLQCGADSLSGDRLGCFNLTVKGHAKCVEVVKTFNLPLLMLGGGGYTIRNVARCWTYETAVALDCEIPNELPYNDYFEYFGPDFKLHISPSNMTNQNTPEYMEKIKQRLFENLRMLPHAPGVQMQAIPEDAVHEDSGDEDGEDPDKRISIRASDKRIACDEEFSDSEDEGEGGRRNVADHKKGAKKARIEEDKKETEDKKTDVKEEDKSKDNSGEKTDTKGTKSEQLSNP

Chain of Histone deacetylase 1 (Q13547 whole entry): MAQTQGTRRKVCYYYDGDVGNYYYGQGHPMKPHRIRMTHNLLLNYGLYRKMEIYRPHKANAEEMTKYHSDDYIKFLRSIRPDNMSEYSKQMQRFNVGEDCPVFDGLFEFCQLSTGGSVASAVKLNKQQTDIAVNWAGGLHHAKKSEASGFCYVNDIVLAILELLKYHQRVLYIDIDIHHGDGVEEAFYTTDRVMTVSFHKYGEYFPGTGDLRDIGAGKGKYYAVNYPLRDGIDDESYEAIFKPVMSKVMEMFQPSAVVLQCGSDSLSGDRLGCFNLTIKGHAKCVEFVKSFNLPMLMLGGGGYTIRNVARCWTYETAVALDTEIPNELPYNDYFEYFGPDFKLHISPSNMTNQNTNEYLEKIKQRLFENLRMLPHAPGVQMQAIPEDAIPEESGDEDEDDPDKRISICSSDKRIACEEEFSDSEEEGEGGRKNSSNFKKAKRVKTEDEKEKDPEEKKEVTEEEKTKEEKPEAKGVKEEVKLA
Chain of Histone deacetylase 4 (P56524 whole entry): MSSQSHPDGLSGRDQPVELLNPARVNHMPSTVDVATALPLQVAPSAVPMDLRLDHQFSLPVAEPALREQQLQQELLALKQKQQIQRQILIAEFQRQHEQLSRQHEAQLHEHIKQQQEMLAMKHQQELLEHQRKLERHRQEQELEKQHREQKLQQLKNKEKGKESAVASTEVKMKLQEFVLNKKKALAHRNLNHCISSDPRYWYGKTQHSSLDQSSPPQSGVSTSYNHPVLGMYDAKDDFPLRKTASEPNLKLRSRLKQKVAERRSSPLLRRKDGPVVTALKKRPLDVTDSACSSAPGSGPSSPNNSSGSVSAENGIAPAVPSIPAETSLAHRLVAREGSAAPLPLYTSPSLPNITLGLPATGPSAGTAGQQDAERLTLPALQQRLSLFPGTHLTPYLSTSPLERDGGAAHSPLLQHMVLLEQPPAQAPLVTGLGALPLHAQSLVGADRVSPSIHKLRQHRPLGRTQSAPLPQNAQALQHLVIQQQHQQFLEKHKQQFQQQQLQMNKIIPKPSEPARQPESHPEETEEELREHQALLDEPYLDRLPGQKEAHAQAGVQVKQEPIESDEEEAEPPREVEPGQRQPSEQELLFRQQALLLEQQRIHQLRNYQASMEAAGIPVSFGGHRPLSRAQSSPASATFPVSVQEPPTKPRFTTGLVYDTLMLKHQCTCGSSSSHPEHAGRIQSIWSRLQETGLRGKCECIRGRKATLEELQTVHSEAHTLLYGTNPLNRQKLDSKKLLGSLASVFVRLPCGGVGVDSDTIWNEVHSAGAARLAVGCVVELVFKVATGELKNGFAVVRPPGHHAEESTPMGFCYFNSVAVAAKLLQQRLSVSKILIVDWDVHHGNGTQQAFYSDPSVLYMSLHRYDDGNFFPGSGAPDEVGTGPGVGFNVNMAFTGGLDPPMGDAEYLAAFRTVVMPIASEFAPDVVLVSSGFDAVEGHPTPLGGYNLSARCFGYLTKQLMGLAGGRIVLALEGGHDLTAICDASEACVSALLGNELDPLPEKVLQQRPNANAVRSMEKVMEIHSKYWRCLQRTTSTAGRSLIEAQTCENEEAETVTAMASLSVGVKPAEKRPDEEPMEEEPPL

Row | Structure (SMILES) | IC50 (Histone deacetylase 1) | IC50 [1] | further results
1 | O=C(NO)c1ccc(Cn2ncnc2-c2ccccc2)cc1 | 341 nM | 16.9 nM | –
2 | O=C(NO)c1ccc(Cn2cnc(-c3cccnc3)n2)cc1 | 356 nM | 27.9 nM | –
3 | O=C(NO)c1ccc(Cn2cnc(-c3ccccc3)n2)cc1 | 206 nM | 9.11 nM | –
4 | O=C(NO)c1ccc(Cn2cnc(-c3cc(F)cc(F)c3)n2)cc1 | 256 nM | 19.6 nM | –
5 | O=C(NO)c1cccc(Cn2cnc(-c3ccccc3)n2)c1 | 38800 nM | 1300 nM | –
7 | O=C(NO)c1ccc(Cn2cnc(-c3ccc(F)cc3)n2)cc1 | 269 nM | 12.6 nM | –
8 | O=C(NO)c1ccc(Cn2cncn2)cc1 | 1440 nM | 91.8 nM | –
9 | O=C(NO)c1ccc(Cn2cnc(-c3cccc(O)c3)n2)cc1 | 197 nM | 12.3 nM | –
10 | O=C(NO)c1ccc(Cn2cnc(-c3ccccc3F)n2)cc1 | 256 nM | 10 nM | –
11 | O=C(NO)c1ccc(Cn2ncnc2-c2cccs2)cc1 | 427 nM | 18.3 nM | –
12 | O=C(NO)c1ccc(Cn2cnc(-c3cccc(-c4ccccc4)c3)n2)cc1 | 150 nM | 11.1 nM | –
13 | O=C(NO)c1ccc(Cn2cnc(-c3cccc(OC(F)(F)F)c3)n2)cc1 | 212 nM | 13.3 nM | –
14 | O=C(NO)c1ccc(Cn2cnc(-c3ccccc3)n2)c(F)c1 | 455 nM | 12.4 nM | –
15 | O=C(NO)c1ccc(Cn2cnc(-c3ccccc3F)n2)c(F)c1 | 299 nM | 7.09 nM | IC50 (Histone deacetylase 4): 4040 nM; inhibition [3]: Active; IC50 at 36 h [2]: 8210 nM; IC50 (Histone deacetylase 11): 8090 nM; inhibition [4]: Active; IC50 (Histone deacetylase 8): 813 nM; IC50 (Histone deacetylase 2): 509 nM
16 | O=C(NO)c1ccc(Cn2cnc(-c3cccs3)n2)cc1 | 249 nM | 10.4 nM | –
17 | O=C(NO)c1ccc(Cn2cnc(-c3ccccc3)n2)nc1 | 431 nM | 20.6 nM | –
18 | O=C(NO)c1ccc(Cn2cnc(-c3c(F)cccc3F)n2)cc1 | 369 nM | 14.3 nM | –
19 | O=C(NO)c1ccc(Cn2cnc(-c3cccc(C(F)(F)F)c3)n2)cc1 | 122 nM | 4.57 nM | –
20 | O=C(NO)c1ccc(Cn2cnc(-c3cccc(F)c3)n2)cc1 | 268 nM | 8.73 nM | –
21 | O=C(NO)c1ccc(Cn2ncnc2-c2ccccc2F)cc1 | 605 nM | 11.8 nM | –
22 | O=C(NO)c1ccc(Cn2cnc(-c3cccc(Cl)c3)n2)cc1 | 111 nM | 6.4 nM | –
23 | O=C(NO)c1ccc(Cn2cnc(Br)n2)cc1 | 926 nM | 44.1 nM | –
24 | COc1cccc(-c2ncn(Cc3ccc(C(=O)NO)cc3)n2)c1 | 167 nM | 11.5 nM | –
25 | Cc1cccc(-c2ncn(Cc3ccc(C(=O)NO)cc3)n2)c1 | 168 nM | 14.7 nM | –
26 | O=C(NO)c1cccc(Cn2ncnc2-c2ccccc2)c1 | 18300 nM | 152 nM | –
27 | O=C(NO)c1cccc(Cn2cncn2)c1 | 23200 nM | 11400 nM | –

Source: ChEMBL document CHEMBL5223156, “Synthesis and biological evaluation of novel N-benzyltriazolyl-hydroxamate derivatives as selective histone deacetylase 6 inhibitors” (Bioorg Med Chem, 2023)
